Test results reported in article PMC9262584 (2022).

Assays:
Assay in all cases: ITC
Settings in all cases: 50 mM KCl, 5 mM MgCl2 (RNA wash buffer); 50 mM Bis-Tris pH 6.1; individual ITC conditions in SI Figures S11/S12
[1] = system: pilM^103 (RNA, riboswitch) GAUAUCGACAAUACUAAACCAUCCGCGAGGGUGGGACGGAAAGCCUACAGGGUCUCUCUGAGACAGCCGGGAUGCCGAAAUAUCACAAUUCGUGAUGCUCGGU
[2] = system: pilM^77 (RNA, riboswitch) GAUAUCGACAAUACUAAACCAUCCGCGAGGGUGGGACGGAAAGCCUACAGGGUCUCUCUGAGACAGCCGGGAUGCCG
[3] = system: pilM^100 (RNA, riboswitch) GAUAUCGACAAUACUAAACCAUCCGCGAGGGUGGGACGGAAAGCCUACAGGGUCUCUCUGAGACAGCCGGGAUGCCGAAAUAUCACAAUUCGUGAUGCUC
[4] = system: pilM^95 (RNA, riboswitch) GAUAUCGACAAUACUAAACCAUCCGCGAGGGUGGGACGGAAAGCCUACAGGGUCUCUCUGAGACAGCCGGGAUGCCGAAAUAUCACAAUUCGUGA
[5] = system: pilM^80 (RNA, riboswitch) GAUAUCGACAAUACUAAACCAUCCGCGAGGGUGGGACGGAAAGCCUACAGGGUCUCUCUGAGACAGCCGGGAUGCCGAAA
[6] = system: pilM^99 (RNA, riboswitch) GAUAUCGACAAUACUAAACCAUCCGCGAGGGUGGGACGGAAAGCCUACAGGGUCUCUCUGAGACAGCCGGGAUGCCGAAAUAUCACAAUUCGUGAUGCU
[7] = system: pilM^105 (RNA, riboswitch) GAUAUCGACAAUACUAAACCAUCCGCGAGGGUGGGACGGAAAGCCUACAGGGUCUCUCUGAGACAGCCGGGAUGCCGAAAUAUCACAAUUCGUGAUGCUCGGUCC
[8] = system: pilM^83 (RNA, riboswitch) GAUAUCGACAAUACUAAACCAUCCGCGAGGGUGGGACGGAAAGCCUACAGGGUCUCUCUGAGACAGCCGGGAUGCCGAAAUAU
[9] = system: pilM^109 (RNA, riboswitch) GAUAUCGACAAUACUAAACCAUCCGCGAGGGUGGGACGGAAAGCCUACAGGGUCUCUCUGAGACAGCCGGGAUGCCGAAAUAUCACAAUUCGUGAUGCUCGGUCCCGGC
[10] = system: pilM^88 (RNA, riboswitch) GAUAUCGACAAUACUAAACCAUCCGCGAGGGUGGGACGGAAAGCCUACAGGGUCUCUCUGAGACAGCCGGGAUGCCGAAAUAUCACAA
[11] = system: pilM^75 (RNA, riboswitch) GAUAUCGACAAUACUAAACCAUCCGCGAGGGUGGGACGGAAAGCCUACAGGGUCUCUCUGAGACAGCCGGGAUGC
[12] = system: pilM^82 (RNA, riboswitch) GAUAUCGACAAUACUAAACCAUCCGCGAGGGUGGGACGGAAAGCCUACAGGGUCUCUCUGAGACAGCCGGGAUGCCGAAAUA
[13] = system: pilM^96 (RNA, riboswitch) GAUAUCGACAAUACUAAACCAUCCGCGAGGGUGGGACGGAAAGCCUACAGGGUCUCUCUGAGACAGCCGGGAUGCCGAAAUAUCACAAUUCGUGAU
[14] = system: pilM^91 (RNA, riboswitch) GAUAUCGACAAUACUAAACCAUCCGCGAGGGUGGGACGGAAAGCCUACAGGGUCUCUCUGAGACAGCCGGGAUGCCGAAAUAUCACAAUUC
[15] = system: pilM^106 (RNA, riboswitch) GAUAUCGACAAUACUAAACCAUCCGCGAGGGUGGGACGGAAAGCCUACAGGGUCUCUCUGAGACAGCCGGGAUGCCGAAAUAUCACAAUUCGUGAUGCUCGGUCCC
[16] = system: pilM^14-75 (RNA, riboswitch) GCUAAACCAUCCGCGAGGGUGGGACGGAAAGCCUACAGGGUCUCUCUGAGACAGCCGGGAUGC
[17] = system: pilM^101 (RNA, riboswitch) GAUAUCGACAAUACUAAACCAUCCGCGAGGGUGGGACGGAAAGCCUACAGGGUCUCUCUGAGACAGCCGGGAUGCCGAAAUAUCACAAUUCGUGAUGCUCG
[18] = system: pilM^93 (RNA, riboswitch) GAUAUCGACAAUACUAAACCAUCCGCGAGGGUGGGACGGAAAGCCUACAGGGUCUCUCUGAGACAGCCGGGAUGCCGAAAUAUCACAAUUCGU
[19] = system: pilM^102 (RNA, riboswitch) GAUAUCGACAAUACUAAACCAUCCGCGAGGGUGGGACGGAAAGCCUACAGGGUCUCUCUGAGACAGCCGGGAUGCCGAAAUAUCACAAUUCGUGAUGCUCGG
[20] = system: pilM^79 (RNA, riboswitch) GAUAUCGACAAUACUAAACCAUCCGCGAGGGUGGGACGGAAAGCCUACAGGGUCUCUCUGAGACAGCCGGGAUGCCGAA
[21] = system: pilM^97 (RNA, riboswitch) GAUAUCGACAAUACUAAACCAUCCGCGAGGGUGGGACGGAAAGCCUACAGGGUCUCUCUGAGACAGCCGGGAUGCCGAAAUAUCACAAUUCGUGAUG
[22] = system: pilM^84 (RNA, riboswitch) GAUAUCGACAAUACUAAACCAUCCGCGAGGGUGGGACGGAAAGCCUACAGGGUCUCUCUGAGACAGCCGGGAUGCCGAAAUAUC

KD [1]: > >100 μM
KD [2]: 0.019 ± 0.019 mM
KD [3]: 0.0005 ± 0.0003 mM
KD [4]: 0.0016 ± 0.0006 mM
KD [5]: 0.0085 ± 0.0014 mM
KD [6]: 0.00025 ± 4e-05 mM
KD [7]: > >100 μM
KD [8]: 0.00167 ± 9e-05 mM
KD [9]: > >100 μM
KD [10]: 0.00025 ± 4e-05 mM
KD [11]: > >100 μM
KD [12]: 0.00212 ± 0.00017 mM
KD [13]: 0.0029 ± 0.0015 mM
KD [14]: 0.00032 ± 5e-05 mM
KD [15]: > >100 μM
KD [16]: 0.012 ± 0.005 mM
KD [17]: 0.0013 ± 0.0005 mM
KD [18]: 0.00038 ± 6e-05 mM
KD [19]: > >100 μM
KD [20]: 0.017 ± 0.011 mM
KD [21]: 0.0016 ± 0.0007 mM
KD [22]: 0.00044 ± 6e-05 mM
Compound: Nc1nc2c(ncn2[C@@H]2O[C@@H]3COP(=O)(O)O[C@H]4[C@@H](O)[C@H](n5cnc6c(N)ncnc65)O[C@@H]4COP(=O)(O)O[C@H]3[C@H]2O)c(=O)[nH]1
